For 31 molecules, EC50 results are on record in patent US20230312605A1, “PYRROLO[2,1-F][1,2,4]TRIAZINES AND PREPARATION AND USES THEREOF” (BioSplice Therapeutics, Inc., priority 2021, published 2023).

What is called EC50 is the concentration that produces a half-maximal response.

The test addresses recombinant DYRK1A kinase (Homo sapiens (Human), UniProt Q13627). The experiment in a line: DYRK1A kinase assay (Ser/Thr 18 peptide Z-lyte FRET assay). Conditions: recombinant DYRK1A 0.25 µg/mL, ATP 15 µM, Ser/Thr peptide 18 4 µM, one hour at room temperature; table head prints EC50, method says IC50. The test is classed as biochemical. Put shortly: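 Recombinant human DYRK1A (0.25 µg/mL) with 15 µM ATP and 4 µM Ser/Thr 18 peptide was incubated 1 h at room temperature with compound (11-point, 10 µM top), in duplicate. Z-lyte FRET read-out (coumarin/fluorescein emission ratio) was converted to percent phosphorylation; IC50 from non-linear regression.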

For the molecule `CC(C)(F)CNc1ncc2c(-c3ccc4ncccc4c3)ccn2n1` [Compound 1281, N-(2-Fluoro-2-methylpropyl)-5-(quinolin-6-yl)pyrrolo[2,1-f][1,2,4]triazin-2-amine], the EC50 was found to be 15 nM.
As to `CC(C)CNc1ncc2c(-c3cnc4nccn4c3)ccn2n1` [Compound 215, 5-(Imidazo[1,2-a]pyrimidin-6-yl)-N-isobutylpyrrolo[2,1-f][1,2,4]triazin-2-amine], the EC50 was 6 nM.
The same measure for `FC(F)(F)C1(CNc2ncc3c(-c4cnc5nccn5c4)ccn3n2)CC1` [Compound 226, 5-(Imidazo[1,2-a]pyrimidin-6-yl)-N-((1-(trifluoromethyl)cyclopropyl)methyl)pyrrolo[2,1-f][1,2,4]triazin-2-amine]: 11 nM; for `FC1(F)CC(Nc2ncc3c(-c4cnc5nccn5c4)ccn3n2)C1` [Compound 236, N-(3,3-Difluorocyclobutyl)-5-(imidazo[1,2-a]pyrimidin-6-yl)pyrrolo[2,1-f] [1,2,4]triazin-2-amine]: 9 nM.
The same measure for `Cc1nc2ccc(-c3ccn4nc(N[C@H]5CC[C@@H](CN6CC(F)C6)CC5)ncc34)nc2n1CC(F)F` [Compound 1894, 5-(3-(2,2-Difluoroethyl)-2-methyl-3H-imidazo[4,5-b]pyridin-5-yl)-N-(cis-4-((3-fluoroazetidin-1-yl)methyl)cyclohexyl)pyrrolo [2,1-f] [1,2,4]triazin-2-amine]: 11 nM; for `COCCO[C@H]1CC[C@@H](Nc2ncc3c(-c4cnc5nc(C)n(CC(F)F)c5c4)ccn3n2)CC1` [Compound 691, 5-(1-(2,2-Difluoroethyl)-2-methyl-1H-imidazo[4,5-b]pyridin-6-yl)-N-(cis-4-(2-methoxyethoxy)cyclohexyl)pyrrolo[2,1-f][1,2,4]triazin-2-amine]: 3 nM.
The same measure for `COCCO[C@H]1CC[C@H](Nc2ncc3c(-c4cnc5nc(C)n(CC(F)F)c5c4)ccn3n2)CC1` [Compound 692, 5-(1-(2,2-Difluoroethyl)-2-methyl-1H-imidazo[4,5-b]pyridin-6-yl)-N-(trans-4-(2-methoxyethoxy)cyclohexyl)pyrrolo[2,1-f][1,2,4]triazin-2-amine]: 28 nM; for `CC1(CNc2ncc3c(-c4cnc5nccn5c4)ccn3n2)CC1` [Compound 225, 5-(Imidazo[1,2-a]pyrimidin-6-yl)-N-((1-methylcyclopropyl)methyl)pyrrolo [2,1-f][1,2,4]triazin-2-amine]: 11 nM.
Consider `CO[C@H]1C[C@@H](Nc2ncc3c(-c4cnc5nccn5c4)ccn3n2)C1` [Compound 239, 5-(Imidazo[1,2-a]pyrimidin-6-yl)-N-(cis-3-methoxycyclobutyl)pyrrolo[2,1-f] [1,2,4]triazin-2-amine], for which the EC50 is 6 nM.
With `Cc1nc2ncc(-c3ccn4nc(N[C@H]5CC[C@@H](OC(F)(F)F)CC5)ncc34)cc2n1CC(F)F` [Compound 1786, 5-(1-(2,2-Difluoroethyl)-2-methyl-1H-imidazo[4,5-b]pyridin-6-yl)-N-(cis-4-(trifluoromethoxy)cyclohexyl)pyrrolo[2,1-f][1,2,4]triazin-2-amine], the EC50 was determined as 5 nM.
With `CN1CC(Nc2ncc3c(-c4ccc5nccn5c4)ccn3n2)C1` [Compound 64, 5-(Imidazo[1,2-a]pyridin-6-yl)-N-(1-methylazetidin-3-yl)pyrrolo[2,1-f] [1,2,4]triazin-2-amine] the figure was 192 nM; with `Cc1nc2ncc(-c3ccn4nc(N[C@H]5CCN(C)C[C@H]5F)ncc34)cc2n1CC(F)F` [Compound 1887, 5-(1-(2,2-Difluoroethyl)-2-methyl-1H-imidazo[4,5-b]pyridin-6-yl)-N-((3R,4S)-3-fluoro-1-methylpiperidin-4-yl)pyrrolo[2,1-f][1,2,4]triazin-2-amine], 31 nM.
The same measure for `CO[C@H]1C[C@H](Nc2ncc3c(-c4ccc5nccnc5c4)ccn3n2)C1` [Compound 1376, N-(trans-3-Methoxycyclobutyl)-5-(quinoxalin-6-yl)pyrrolo[2,1-f][1,2,4] triazin-2-amine]: 14 nM; for `Cc1nc2ccc(-c3ccn4nc(NC5CCC6(CC5)COC6)ncc34)nc2n1CC(F)F` [Compound 1961, 5-(3-(2,2-Difluoroethyl)-2-methyl-3H-imidazo[4,5-b]pyridin-5-yl)-N-(2-oxaspiro[3.5]nonan-7-yl)pyrrolo[2,1-f][1,2,4]triazin-2-amine]: 3 nM; for `c1cnc2ncc(-c3ccn4nc(N[C@H]5CC[C@@H](N6CCOCC6)CC5)ncc34)cc2c1` [Compound 1551, N-(cis-4-Morpholinocyclohcxy1)-5-(1,8-naphthyridin-3-yl)pyrrolo[2,1-f] [1,2,4]triazin-2-amine]: 38 nM.
The same measure for `Cc1nc2ncc(-c3ccn4nc(NC5CCN(CCF)CC5)ncc34)cc2n1CC(F)F` [Compound 1881, 5-(1-(2,2-Difluoroethyl)-2-methyl-1H-imidazo[4,5-b]pyridin-6-yl)-N-(1-(2-fluoroethyl)piperidin-4-yl)pyrrolo[2,1-f][1,2,4]triazin-2-amine]: 2 nM; for `Cc1nc2ncc(-c3ccn4nc(N[C@H]5CC[C@@H](OCCO)CC5)ncc34)cc2n1CC(F)F` [Compound 1878, 2-((cis-4-((5-(1-(2,2-Difluoroethyl)-2-methyl-1H-imidazo[4,5-b]pyridin-6-yl)pyrrolo[2,1-f][1,2,4]triazin-2-yl)amino)cyclohexyl)oxy)ethan-1-ol]: 2 nM; for `CO[C@H]1CC[C@@H](Nc2ncc3c(-c4cnc5ncccc5c4)ccn3n2)CC1` [Compound 1537, N-(cis-4-Methoxycyclohexyl)-5-(1,8-naphthyridin-3-yl)pyrrolo[2,1-f] [1,2,4]triazin-2-amine]: 3 nM.
`CO[C@H]1C[C@@H](Nc2ncc3c(-c4ccc5nccnc5c4)ccn3n2)C1` [Compound 1375, N-(cis-3-Methoxycyclobutyl)-5-(quinoxalin-6-yl)pyrrolo[2,1-f][1,2,4]triazin-2-amine]: the EC50 turned out to be 6 nM.
The same measure for `COc1ncnc2ccc(-c3ccn4nc(NCC(C)(C)F)ncc34)cc12` [Compound 1423, N-(2-Fluoro-2-methylpropyl)-5-(4-methoxyquinazolin-6-yl)pyrrolo[2,1-f] [1,2,4]triazin-2-amine]: 149 nM; for `c1cn2cc(-c3ccn4nc(NC5CCC5)ncc34)cnc2n1` [Compound 235, N-Cyclobutyl-5-(imidazo[1,2-a]pyrimidin-6-yl)pyrrolo[2,1-f][1,2,4]triazin-2-amine]: 377 nM; for `CC(=O)N1CC2(CCC(Nc3ncc4c(-c5ccc6nc(C)n(CC(F)F)c6n5)ccn4n3)CC2)C1` [Compound 1899, 1-(7-((5-(3-(2,2-difluoroethyl)-2-methyl-3H-imidazo[4,5-b]pyridin-5-yl)pyrrolo[2,1-f][1,2,4]triazin-2-yl)amino)-2-azaspiro[3.5]nonan-2-yl)ethan-1-one]: 1 nM.
With `C[C@]1(O)CC[C@@H](Nc2ncc3c(-c4cnc5nccn5c4)ccn3n2)CC1` [Compound 258, (1s,4s)-4-((5-(Imidazo [1,2-a]pyrimidin-6-yl)pyrrolo[2,1-f] [1,2,4]triazin-2-yl)amino)-1-methylcyclohexan-1-ol] the figure was 10 nM.
The same measure for `Cc1nc2ccc(-c3ccn4nc(N[C@H]5CCN(C)C[C@@H]5F)ncc34)nc2n1CC(F)F` [Compound 1855, 5-(3-(2,2-Difluoroethyl)-2-methyl-3H-imidazo[4,5-b]pyridin-5-yl)-N-((3S,4S)-3-fluoro-1-methylpiperidin-4-yl)pyrrolo[2,1-f][1,2,4]triazin-2-amine]: 6 nM; for `CN1CC2(CC(Nc3ncc4c(-c5ccc6ncccc6c5)ccn4n3)C2)C1` [Compound 1348, N-(2-Methyl-2-azaspiro[3.3]heptan-6-yl)-5-(quinolin-6-yl)pyrrolo[2,1-f] [1,2,4]triazin-2-amine]: 5 nM.
`CO[C@H]1C[C@@H](Nc2ncc3c(-c4ccc5nc(C)n(CC(F)F)c5n4)ccn3n2)C1` [Compound 1091, 5-(3-(2,2-Difluoroethyl)-2-methyl-3H-imidazo[4,5-b]pyridin-5-yl)-N-(cis-3-methoxycyclobutyl)pyrrolo[2,1-f][1,2,4]triazin-2-amine]: the EC50 was 3340 nM.
The same measure for `CCO[C@H]1CC[C@@H](Nc2ncc3c(-c4cnc5nccn5c4)ccn3n2)CC1` [Compound 263, N-(cis-4-Ethoxycyclohexyl)-5-(imidazo[1,2-a]pyrimidin-6-yl)pyrrolo[2,1-f][1,2,4]triazin-2-amine]: 6 nM; for `CO[C@H]1CC[C@H](Nc2ncc3c(-c4cnc5nccn5c4)ccn3n2)CC1` [Compound 260, 5-(Imidazo[1,2-a]pyrimidin-6-yl)-N-(trans-4-methoxycyclohexyl)pyrrolo [2,1-f] [1,2,4]triazin-2-amine]: 9 nM.
With `C[C@]1(O)C[C@@H](Nc2ncc3c(-c4cnc5ncccc5c4)ccn3n2)C1` [Compound 1825, cis-3-((5-(1,8-Naphthyridin-3-yl)pyrrolo[2,1-f][1,2,4]triazin-2-yl)amino)-1-methylcyclobutan-1-ol] the figure was 5 nM; with `Cc1nc2ccc(-c3ccn4nc(NC5CCN(C(=O)[C@H]6CC6(F)F)CC5)ncc34)nc2n1CC(F)F` [Compound 1918, (R)-(2,2-Difluorocyclopropyl)(4-((5-(3-(2,2-difluoroethyl)-2-methyl-3H-imidazo[4,5-b]pyridin-5-yl)pyrrolo[2,1-f] [1,2,4]triazin-2-yl)amino)piperidin-1-yl)methanone], 7 nM.
The same measure for `Cc1nc2ncc(-c3ccn4nc(N[C@@H]5CCN(C)C[C@H]5F)ncc34)cc2n1CC(F)F` [Compound 1885, 5-(1-(2,2-Difluoroethyl)-2-methyl-1H-imidazo[4,5-b]pyridin-6-yl)-N-((3R,4R)-3-fluoro-1-methylpiperidin-4-yl)pyrrolo[2,1-f][1,2,4]triazin-2-amine]: 6 nM.
